Legend:
Format in all cases: in vivo
[1] = tested on: Japanese bulrush (Scirpus juncoides Roxb.); test: Test Example 1: herbicidal effect by soil application to paddy field; conditions: paddy field soil application; active ingredient 1,000 g per 1 hectare; wettable powder added dropwise to water surface the day after sowing; examined on the 21st day after application
In short: (§1)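 Plants were sown in flooded (3 cm) paddy soil and evaluated for herbicidal effect 21 days after soil application in a greenhouse.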

[2] = tested on: early watergrass (Echinochloa oryzicola Vasing); test: as above; conditions: paddy field soil application; active ingredient 1,000 g per 1 hectare; wettable powder added dropwise to water surface the day after sowing; examined on the 21st day after application
In short: as §1

[3] = tested on: heartshape false pickerelweed (Monochoria vaginalis (Burm.f.) C.Presl); test: as above; conditions: paddy field soil application; active ingredient 1,000 g per 1 hectare; wettable powder added dropwise to water surface the day after sowing; examined on the 21st day after application
In short: as §1

[4] = tested on: barnyardgrass (Echinochloa crus-galli (L.) P. Beauv. var. crus-galli); test: Test Example 2: herbicidal effect by soil application to upland field; conditions: soil surface spray, upland field soil, 1,000 g active ingredient per hectare, 21st day after application
In short: (§2)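 After sowing and covering, the soil received an even aqueous spray of wettable powder at a rate of 1,000 g active ingredient/ha (1,000 L/ha). Ratings of herbicidal effect followed a standard scale 21 days post-treatment, with plants held in a greenhouse.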

[5] = tested on: green foxtail (Setaria viridis (L.) P. Beauv.); test: as above; conditions: soil surface spray, upland field soil, 1,000 g active ingredient per hectare, 21st day after application
In short: as §2

[6] = tested on: slender amaranth (Amaranthus viridis L.); test: as above; conditions: soil surface spray, upland field soil, 1,000 g active ingredient per hectare, 21st day after application
In short: as §2

[7] = tested on: velvetleaf (Abutilon theophrasti medicus); test: as above; conditions: soil surface spray, upland field soil, 1,000 g active ingredient per hectare, 21st day after application
In short: as §2

[8] = tested on: barnyardgrass (Echinochloa crus-galli (L.) P. Beauv. var. crus-galli); test: Test Example 3: herbicidal effect by application to upland field (foliage treatment); conditions: 14th day after application; for herbicidal effect (index), Barnyardgrass: foliage treatment, plants grown two weeks, 1,000 g active ingredient per hectare; for herbicidal effect, Barnyardgrass: foliage treatment, 1,000 g active ingredient per 1 hectare, greenhouse
In short: (§3)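 Sow in field soil; grow 2 weeks in greenhouse; spray foliage from above with wettable-powder dilution (1,000 g AI/ha, 1,000 L/ha); return to greenhouse; score effect at day 14 against a standard.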

[9] = tested on: green foxtail (Setaria viridis (L.) P. Beauv.); test: as above; conditions: 14th day after application; for herbicidal effect (index), Green Foxtail: foliage treatment, plants grown two weeks, 1,000 g active ingredient per hectare; for herbicidal effect, Green Foxtail: foliage treatment, 1,000 g active ingredient per 1 hectare, greenhouse
In short: as §3

[10] = tested on: slender amaranth (Amaranthus viridis L.); test: as above; conditions: 14th day after application; for herbicidal effect (index), Slender Amaranth: foliage treatment, plants grown two weeks, 1,000 g active ingredient per hectare; for herbicidal effect, Slender Amaranth: foliage treatment, 1,000 g active ingredient per 1 hectare, greenhouse
In short: as §3

[11] = tested on: velvetleaf (Abutilon theophrasti medicus); test: as above; conditions: 14th day after application; for herbicidal effect (index), Velvetleaf: foliage treatment, plants grown two weeks, 1,000 g active ingredient per hectare; for herbicidal effect, Velvetleaf: foliage treatment, 1,000 g active ingredient per 1 hectare, greenhouse
In short: as §3

| Structure (SMILES) | herbicidal effect, Scirpus juncoides Roxb. [1] | herbicidal effect, Echinochloa oryzicola Vasing [2] | herbicidal effect, Monochoria vaginalis (Burm. f.) C. Presl [3] | herbicidal effect (index), Barnyardgrass [4] | herbicidal effect (index), Green Foxtail [5] | herbicidal effect (index), Slender Amaranth [6] | herbicidal effect (index), Velvetleaf [7] | herbicidal effect (index), Barnyardgrass [8] | herbicidal effect (index), Green Foxtail [9] | herbicidal effect (index), Slender Amaranth [10] | herbicidal effect (index), Velvetleaf [11] | herbicidal effect, Barnyardgrass [8] | herbicidal effect, Green Foxtail [9] | herbicidal effect, Slender Amaranth [10] | herbicidal effect, Velvetleaf [11] |
| --- | --- | --- | --- | --- | --- | --- | --- | --- | --- | --- | --- | --- | --- | --- | --- |
| O=C1CCCC(O)=C1C(=O)c1ccc(C(F)(F)F)n(-c2ccc([N+](=O)[O-])cc2)c1=O [I-88] | 5 (90% or more of herbicidal effect and crop phytotoxicity) | 5 (90% or more of herbicidal effect and crop phytotoxicity) | 5 (90% or more of herbicidal effect and crop phytotoxicity) | 5 (90% or more of herbicidal effect and crop phytotoxicity) | 5 (90% or more of herbicidal effect and crop phytotoxicity) | 5 (90% or more of herbicidal effect and crop phytotoxicity) | 5 (90% or more of herbicidal effect and crop phytotoxicity) | 5 (90% or more of herbicidal effect and crop phytotoxicity) | 5 (90% or more of herbicidal effect and crop phytotoxicity) | 5 (90% or more of herbicidal effect and crop phytotoxicity) | 5 (90% or more of herbicidal effect and crop phytotoxicity) |  |  |  |  |
| COCCOCCn1c(C(F)(F)F)ccc(C(=O)C2=C(O)C3CCC(C3)C2=O)c1=O (stereo not shown) [III-23] | 5 (90% or more of herbicidal effect and crop phytotoxicity) | 5 (90% or more of herbicidal effect and crop phytotoxicity) | 5 (90% or more of herbicidal effect and crop phytotoxicity) | 5 (90% or more of herbicidal effect and crop phytotoxicity) | 5 (90% or more of herbicidal effect and crop phytotoxicity) | 5 (90% or more of herbicidal effect and crop phytotoxicity) | 5 (90% or more of herbicidal effect and crop phytotoxicity) |  |  |  |  | 5 (90% or more of herbicidal effect and crop phytotoxicity) | 5 (90% or more of herbicidal effect and crop phytotoxicity) | 5 (90% or more of herbicidal effect and crop phytotoxicity) | 5 (90% or more of herbicidal effect and crop phytotoxicity) |
| COc1cc(-n2c(C(F)(F)F)ccc(C(=O)c3cnn(C)c3O)c2=O)ccc1Cl [IV-90] | 5 (90% or more of herbicidal effect and crop phytotoxicity) | 5 (90% or more of herbicidal effect and crop phytotoxicity) | 5 (90% or more of herbicidal effect and crop phytotoxicity) | 5 (90% or more of herbicidal effect and crop phytotoxicity) | 3 (50 to less than 70% of herbicidal effect and crop phytotoxicity) | 5 (90% or more of herbicidal effect and crop phytotoxicity) | 5 (90% or more of herbicidal effect and crop phytotoxicity) |  |  |  |  | 5 (90% or more of herbicidal effect and crop phytotoxicity) | 5 (90% or more of herbicidal effect and crop phytotoxicity) | 5 (90% or more of herbicidal effect and crop phytotoxicity) | 5 (90% or more of herbicidal effect and crop phytotoxicity) |
| COCC(C)n1c(C(F)(F)F)ccc(C(=O)C2=C(O)CCCC2=O)c1=O (stereo not shown) [I-33] | 5 (90% or more of herbicidal effect and crop phytotoxicity) | 5 (90% or more of herbicidal effect and crop phytotoxicity) | 5 (90% or more of herbicidal effect and crop phytotoxicity) | 5 (90% or more of herbicidal effect and crop phytotoxicity) | 3 (50 to less than 70% of herbicidal effect and crop phytotoxicity) | 5 (90% or more of herbicidal effect and crop phytotoxicity) | 5 (90% or more of herbicidal effect and crop phytotoxicity) | 5 (90% or more of herbicidal effect and crop phytotoxicity) | 4 (70 to less than 90% of herbicidal effect and crop phytotoxicity) | 5 (90% or more of herbicidal effect and crop phytotoxicity) | 5 (90% or more of herbicidal effect and crop phytotoxicity) |  |  |  |  |
| COCCn1c(C(F)(F)F)ccc(C(=O)C2=C(O)C(C)(C)CCC2=O)c1=O [II-29] | 5 (90% or more of herbicidal effect and crop phytotoxicity) | 5 (90% or more of herbicidal effect and crop phytotoxicity) | 5 (90% or more of herbicidal effect and crop phytotoxicity) | 5 (90% or more of herbicidal effect and crop phytotoxicity) | 5 (90% or more of herbicidal effect and crop phytotoxicity) | 5 (90% or more of herbicidal effect and crop phytotoxicity) | 5 (90% or more of herbicidal effect and crop phytotoxicity) |  |  |  |  | 5 (90% or more of herbicidal effect and crop phytotoxicity) | 5 (90% or more of herbicidal effect and crop phytotoxicity) | 5 (90% or more of herbicidal effect and crop phytotoxicity) | 5 (90% or more of herbicidal effect and crop phytotoxicity) |
| CC(C)S(=O)(=O)Cn1c(C(F)(F)F)ccc(C(=O)C2=C(O)CCCC2=O)c1=O [I-54] | 5 (90% or more of herbicidal effect and crop phytotoxicity) | 5 (90% or more of herbicidal effect and crop phytotoxicity) | 5 (90% or more of herbicidal effect and crop phytotoxicity) | 5 (90% or more of herbicidal effect and crop phytotoxicity) | 4 (70 to less than 90% of herbicidal effect and crop phytotoxicity) | 5 (90% or more of herbicidal effect and crop phytotoxicity) | 5 (90% or more of herbicidal effect and crop phytotoxicity) | 5 (90% or more of herbicidal effect and crop phytotoxicity) | 5 (90% or more of herbicidal effect and crop phytotoxicity) | 5 (90% or more of herbicidal effect and crop phytotoxicity) | 5 (90% or more of herbicidal effect and crop phytotoxicity) |  |  |  |  |
| CCn1ncc(C(=O)c2ccc(C(F)(F)F)n(CC3CC(C)=NO3)c2=O)c1O (stereo not shown) [IV-107] | 5 (90% or more of herbicidal effect and crop phytotoxicity) | 5 (90% or more of herbicidal effect and crop phytotoxicity) | 5 (90% or more of herbicidal effect and crop phytotoxicity) | 5 (90% or more of herbicidal effect and crop phytotoxicity) | 5 (90% or more of herbicidal effect and crop phytotoxicity) | 5 (90% or more of herbicidal effect and crop phytotoxicity) | 5 (90% or more of herbicidal effect and crop phytotoxicity) |  |  |  |  | 5 (90% or more of herbicidal effect and crop phytotoxicity) | 5 (90% or more of herbicidal effect and crop phytotoxicity) | 5 (90% or more of herbicidal effect and crop phytotoxicity) | 5 (90% or more of herbicidal effect and crop phytotoxicity) |
| O=C(C1=C(O)C2CCC(C2)C1=O)c1ccc(C(F)(F)F)n(-c2ccccc2)c1=O (stereo not shown) [III-34] | 5 (90% or more of herbicidal effect and crop phytotoxicity) | 5 (90% or more of herbicidal effect and crop phytotoxicity) | 5 (90% or more of herbicidal effect and crop phytotoxicity) | 5 (90% or more of herbicidal effect and crop phytotoxicity) | 5 (90% or more of herbicidal effect and crop phytotoxicity) | 5 (90% or more of herbicidal effect and crop phytotoxicity) | 5 (90% or more of herbicidal effect and crop phytotoxicity) |  |  |  |  | 5 (90% or more of herbicidal effect and crop phytotoxicity) | 5 (90% or more of herbicidal effect and crop phytotoxicity) | 5 (90% or more of herbicidal effect and crop phytotoxicity) | 5 (90% or more of herbicidal effect and crop phytotoxicity) |

Reference: patent publication US8076487B2, “Pyridone derivative and herbicide” (Kumiai Chemical Industry Co., Ltd., priority 2006, dated 2011)
